The source of these data is ChEMBL document CHEMBL1143598, “1-Methyl-3H-pyrazolo[1,2-a]benzo[1,2,3,4]tetrazin-3-ones. Design, synthesis, and biological activity of new antitumor agents” (2005).

Molecules are shown by their SMILES.

Experiment [1] can be described thus: Concentration required to inhibit total cell growth of human tumor cell lines (50 cells giving positive results out of 55 cells); Range = 5.23-4.07. Format: functional. Particulars: read-out: pTGI50 (converted).
Experiment [2] can be described thus: Concentration required to inhibit cell growth of human tumor cell lines (53 cells giving positive results out of 55 cells); Range is 5.68-4.53. Format: functional.
Experiment [3] can be described thus: Concentration required to inhibit cell death of human tumor cell lines (40 cells giving positive results out of 55 cells); Range = 4.26-4.06. Format: functional. To be noted: read-out: pLC50 (the source's name) (converted).
Experiment [4] is described as follows: Concentration required to inhibit cell growth of human tumor cell lines (53 cells giving positive results out of 53 cells); Range = 5.85-4.50. Format: functional.
Experiment [5] can be described thus: Concentration required to inhibit total cell growth of human tumor cell lines (52 cells giving positive results out of 53 cells; Range = 5.53-4.07. The class given is functional. Particulars: read-out: pTGI50 (converted).
A short description of experiment [6]: Concentration required to inhibit cell death of human tumor cell lines (49 cells giving positive results out of 53 cells); Range = 5.25-4.11. Format: functional. Particulars: read-out: pLC50 (the source's name) (converted).
A short description of experiment [7]: Concentration required to inhibit total cell growth of human tumor cell lines (54 cells giving positive results out of 55 cells); Range = 5.72-4.10. Format: functional. To be noted: read-out: pTGI50 (converted).
Experiment [8] in a line: Concentration required to inhibit cell death of human tumor cell lines (50 cells giving positive results out of 55 cells); Range = 5.27-4.1. Format: functional. Particulars: read-out: pLC50 (the source's name) (converted).
Experiment [9] in a line: Concentration required to inhibit cell growth of human tumor cell lines (55 cells giving positive results out of 55 cells); Range = 6.28-4.59. The class given is functional.
The nature of experiment [10]: Concentration required to inhibit total cell growth of human tumor cell lines (52 cells giving positive results out of 54 cells); Range = 5.53-4.02. Particulars: read-out: pTGI50 (converted). The class given is functional.
Experiment [11] can be described thus: Concentration required to inhibit cell death of human tumor cell lines (45 cells giving positive results out of 54 cells); Range = 5.25-4.05. The class given is functional. Particulars: read-out: pLC50 (the source's name) (converted).
The nature of experiment [12]: Concentration required to inhibit cell growth of human tumor cell lines (53 cells giving positive results out of 54 cells); Range = 6.05-4.50. The class given is functional.
A short description of experiment [13]: Concentration required to inhibit total cell growth of human tumor cell lines (51 cells giving positive results out of 54 cells); Range = 6.14-4.29. Particulars: read-out: pTGI50 (converted). Format: functional.
Experiment [14] can be described thus: Concentration required to inhibit cell death of human tumor cell lines (46 cells giving positive results out of 54 cells); Range = 5.36-4.01. Format: functional. Particulars: read-out: pLC50 (the source's name) (converted).
The nature of experiment [15]: Concentration required to inhibit cell growth of human tumor cell lines (54 cells giving positive results out of 54 cells); Range = 6.76-4.46. Format: functional.
Experiment [16] is described as follows: Concentration required to inhibit total cell growth of human tumor cell lines (50 cells giving positive results out of 55 cells); Range = 5.45-4.00. Format: functional. Particulars: read-out: pTGI50 (converted).
The nature of experiment [17]: Concentration required to inhibit cell death of human tumor cell lines (48 cells giving positive results out of 55 cells); Range = 5.19-4.05. To be noted: read-out: pLC50 (the source's name) (converted).
Experiment [18] in a line: Concentration required to inhibit cell growth of human tumor cell lines (54 cells giving positive results out of 55 cells); Range = 5.75-4.50. The class given is functional.
Experiment [19] is described as follows: Concentration required to inhibit cell growth of human tumor cell lines (51 cells giving positive results out of 53 cells); Range = 5.75-4.67. Format: functional.
Experiment [20] is described as follows: Concentration required to inhibit cell death of human tumor cell lines (50 cells giving positive results out of 53 cells); Range = 5.21-4.01. The class given is functional. Particulars: read-out: pLC50 (the source's name) (converted).
Experiment [21] is described as follows: Concentration required to inhibit total cell growth of human tumor cell lines (52 cells giving positive results out of 53 cell lines); Range = 5.47-4.34. The class given is functional. To be noted: read-out: pTGI50 (converted).

In the case of `Cc1cc(=O)n2nnc3ccccc3n12`, the GI50 was 5890 nM in experiment [1] and 2090 nM in [2]. In addition, in experiment [3], the CC50 was 55000 nM.
As for `Cc1ccc2c(c1)nnn1c(=O)cc(C)n21`, the GI50 in [4] is 1410 nM; in experiment [5], 2950 nM. Further, in experiment [6], the CC50 is 5620 nM.
Consider `Cc1cc(=O)n2nnc3cc(Cl)ccc3n12`, for which the figures for the GI50 in [7] and in [9] were 1910 nM and 525 nM, respectively. Further, the CC50 in experiment [8] is 5370 nM.
On to `Cc1cc(=O)n2nnc3ccc(Cl)cc3n12`, for which the GI50 is 2950 nM in experiment [10] and 891 nM in [12]. In addition, the CC50 in experiment [11] was 5620 nM.
As for `Cc1ccc2nnn3c(=O)cc(C)n3c2c1`, the GI50 was 724 nM in experiment [13] and 174 nM in [15]. For the same molecule, the CC50 in experiment [14] was 4370 nM.
On to `COc1ccc2c(c1)nnn1c(=O)cc(C)n21`, for which the GI50 was 3550 nM in experiment [16] and 1780 nM in experiment [18]. In addition, in experiment [17], the CC50 was 6460 nM.
As for `Cc1cc(=O)n2nnc3cc(F)ccc3n12`, the GI50 in experiment [19] was 1780 nM; in experiment [21], 3390 nM. Also, the CC50 in [20] was 6170 nM.
